Measurements published in article PMC11903733 (Frontiers in Pharmacology, 2025).

Assays:
MV-4-11 cells = experiment: MTS cell proliferation assay; format: cell-based; settings: Homo sapiens, MV4-11, LSD1-addicted MV-4-11 leukemia cells, 72 h
Experimental: (§1) The myeloid leukemia cell lines MV-4-11, MOLT-4, MOLM-16, HL-60, and the human B lymphocyte cell line […] were purchased from the American Type Culture Collection (ATCC, Manassas, VA, United States). The myeloid leukemia cell line HAL-01 was obtained from the Deutsche Sammlung von Mikroorganismen und Zellkulturen GmbH (DSMZ, Braunschweig, Germany). All cells were cultured in IMDM or RPMI -1640 medium supplemented with 10% FBS, 100 U/mL penicillin, and 100 μg/mL streptomycin. The cells were maintained in a humidified incubator with an atmosphere of 5% CO2 at 37°C.
(§2) The in vitro anti-proliferative activity of the compounds was determined using the CellTiter 96® AQueous NonRadioactive Cell Proliferation Assay Kit (Promega, Madison, United States) as previously described ([Ji et al., 2017]). In brief, 5–10 × 10^3 cells and 180 μL of medium were first seeded into each well of a 96-well plate. Subsequently, the cells were exposed to either 0.2% Dimethyl sulfoxide (DMSO, Aladdin Reagent, Shanghai, China) or a serial dilution of the compounds, prepared from a 10 mM stock solution in DMSO, with the final concentration of DMSO being 0.2% for 72 h. 20 μL of MTS reagent was added to each well, and the culture was incubated in the dark at 37°C for 4 h. Finally, the optical density (OD) was then recorded at 490 nm and 690 nm using a microplate reader from Molecular Devices. The proliferation inhibition rate was calculated according to the following formula: inhibition ratio = (OD of DMSO treated wells - OD of compound treated wells)/(OD of DMSO treated wells - OD of blank wells) × 100%. The IC50 values of the compounds inhibiting cell proliferation were calculated using GraphPad Prism 10 (GraphPad Software Inc., San Diego, CA).

RPMI-8226 cells = experiment: MTS cell proliferation assay; format: cell-based; settings: Homo sapiens, LSD1-non-sensitive RPMI-8226 cells, 72 h
Experimental: as §1, §2

LSD1 = biological target: T1, LSD1 (Homo sapiens, UniProt O60341); experiment: Lance Ultra LSD1 demethylase TR-FRET enzyme inhibition assay; format: biochemical; settings: for LSD2/LSD1 selectivity (folds): ratio of LSD2 IC50 to LSD1 IC50; for IC50: recombinant human LSD1 (172–852 aa) 2 nM, Bio-H3K4me2 substrate, 1 h, TR-FRET, mean ± SD, n = 3
T1 construct: Recombinant human LSD1 (172–852 aa); by word order LSD1 from Sino Biological
Source text: (§3) These were utilized in both in vitro and in vivo assays. Iscove’s Modified Dulbecco’s Medium (IMDM), Roswell Park Memorial Institute (RPMI)-1640 medium, fetal bovine serum (FBS) and penicillin/streptomycin were purchased from Gibco (Grand Island, New Nork, United States). Recombinant human LSD1 (172–852 aa) and full-length LSD2 were obtained from Sino Biological Inc. and ActiveMotif.
(§4) The inhibitory effects of the tested compounds on LSD1 and LSD2 enzymes were methodically assessed using the Lance Ultra LSD1 Histone H3-Lysine 4 Demethylase Assay Kit from PerkinElmer, adhering to previously published methodologies ([Li et al., 2022]). In brief, the reaction was initiated by adding 4 μL of enzyme solution, with concentrations specified at 2 nM for LSD1 or 172 nM for LSD2, 4 μL of substrate solution [2.5 μM Bio-H3K4me2 ([…])], and 2 μL of tested compound to a Tris buffer (50 mM Tris-HCl, 50 mM NaCl, 0.01% Tween 20, 1 mM DTT, 10 μM FAD, 10% glycerol, pH 9.0) at room temperature and incubated for 1 h. Following the incubation, 5 μL of a detection mixture, comprising an Eu-labeled H3K4me0 antibody and ULight Streptavidin, was added to the reaction. The fluorescence intensity was then measured employing TR-FRET mode with excitation and emission wavelengths set at 320 nm and 665 nm, respectively, utilizing the Envision (PerkinElmer) system. Each experiment was performed in triplicate.

LSD2 = biological target: T2, LSD2 (Homo sapiens, UniProt Q8NB78); experiment: Lance Ultra demethylase TR-FRET enzyme inhibition assay, LSD2; format: biochemical; settings: full-length LSD2 172 nM, Bio-H3K4me2 substrate, 1 h, mean ± SD, n = 3
T2 construct: full-length LSD2; by word order LSD2 from ActiveMotif
T2 sequence (Q8NB78 1-822): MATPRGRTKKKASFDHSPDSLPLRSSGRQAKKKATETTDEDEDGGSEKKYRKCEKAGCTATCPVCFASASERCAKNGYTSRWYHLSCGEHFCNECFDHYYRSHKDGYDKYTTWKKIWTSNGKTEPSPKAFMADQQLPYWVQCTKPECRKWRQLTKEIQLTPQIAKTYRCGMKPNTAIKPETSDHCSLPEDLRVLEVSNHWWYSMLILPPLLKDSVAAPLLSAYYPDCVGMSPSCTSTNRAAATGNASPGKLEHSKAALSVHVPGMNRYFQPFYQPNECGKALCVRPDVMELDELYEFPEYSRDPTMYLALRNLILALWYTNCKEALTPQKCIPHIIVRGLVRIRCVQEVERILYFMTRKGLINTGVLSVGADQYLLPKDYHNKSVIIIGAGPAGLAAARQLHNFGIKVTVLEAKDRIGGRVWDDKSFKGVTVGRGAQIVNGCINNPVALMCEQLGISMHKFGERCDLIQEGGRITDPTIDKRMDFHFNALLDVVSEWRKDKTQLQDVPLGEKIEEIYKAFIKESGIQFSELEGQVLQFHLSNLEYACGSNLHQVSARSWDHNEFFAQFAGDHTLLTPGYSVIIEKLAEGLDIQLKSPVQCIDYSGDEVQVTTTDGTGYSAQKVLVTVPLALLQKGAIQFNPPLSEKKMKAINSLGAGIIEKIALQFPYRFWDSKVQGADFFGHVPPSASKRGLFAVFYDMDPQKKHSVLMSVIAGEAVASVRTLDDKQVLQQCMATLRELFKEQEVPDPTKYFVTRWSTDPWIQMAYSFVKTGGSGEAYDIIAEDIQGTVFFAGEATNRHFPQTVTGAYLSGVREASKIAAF
Source text: as §3, §4

Structure (SMILES) | IC50 (MV-4-11 cells) [µM] | IC50 (RPMI-8226 cells) [µM] | LSD2/LSD1 selectivity (folds) (LSD1) | IC50 (LSD1) [nM] | IC50 (LSD2) [nM]
O=S(=O)(c1cccc(CC2CCCCC2)c1)N1CCc2cc(C3CC3NCC3CCNCC3)ccc21 (stereo not drawn) [LTM-6] | 0.98 ± 0.07 | > 100 | >302 | 16.5 ± 2.39 | > 5000
O=C(O)c1ccc(CN2CCC(CN[C@@H]3C[C@H]3c3ccccc3)CC2)cc1 [GSK2879552, reference compound] | 1.17 ± 0.28 | 21.3 ± 2.69 | 4 | 24.5 ± 2.26 | 104 ± 5.75
C=CCc1cccc(S(=O)(=O)N2CCc3cc(C4CC4NCC4CCNCC4)ccc32)c1 (stereo not drawn) [LTM-4] | 0.63 ± 0.05 | > 100 | 97 | 8.92 ± 0.57 | 861 ± 26.7
O=S(=O)(c1cccc(-c2ccccc2)c1)N1CCc2cc(C3CC3NCC3CCNCC3)ccc21 (stereo not drawn) [LTM-2] | 0.74 ± 0.06 | > 100 | 215 | 10.2 ± 2.71 | 2200

Stronger by IC50 (MV-4-11 cells), values ahead:

IC50 (MV-4-11 cells) [µM] | IC50 (RPMI-8226 cells) [µM] | LSD2/LSD1 selectivity (folds) (LSD1) | IC50 (LSD1) [nM] | IC50 (LSD2) [nM] | Structure (SMILES)
0.51 ± 0.03 | > 100 | 92 | 7.31 ± 0.46 | 674 ± 21.5 | O=S(=O)(c1cccc(CC2CC2)c1)N1CCc2cc(C3CC3NCC3CCNCC3)ccc21 (stereo not drawn) [LTM-5]
0.32 ± 0.04 | > 100 | 668 | 4.57 ± 0.32 | 3050 | O=S(=O)(c1ccc(CO)c(Cl)c1)N1CCc2cc(C3CC3NCC3CCNCC3)ccc21 (stereo not drawn) [LTM-3]
